Source: US11401233B1, “Pleuromutilin salicylic acid ester with antibacterial activity and a method of preparing the same” (SHAANXI UNIVERSITY OF SCIENCE AND TECHNOLOGY, priority 2021, dated 2022)

Experiments:
MRSA-171 = experiment: Paper diffusion method drug sensitivity test, MRSA-171; assay type: cell-based, Staphylococcus aureus; details: for Zone of inhibition: MRSA-171, 30 μg/tablet paper disc 6.35 mm, LB plate, 37° C., 24 h, ≥17 mm sensitive, 15-16 mm intermediary, ≤14 mm drug resistance
[1] = tested on: multi-resistant Staphylococcus aureus 575 (MRSA-575); experiment: Paper diffusion method drug sensitivity test, MRSA-575; assay type: cell-based; details: for Zone of inhibition: MRSA-575, 30 μg/tablet paper disc 6.35 mm, LB plate, 37° C., 24 h, ≥17 mm sensitive, 15-16 mm intermediary, ≤14 mm drug resistance
Experimental: (§1) The antimicrobial efficacy was determined by a paper diffusion method drug sensitivity test.
(§2) E Experimental strains: multi-resistant Staphylococcus aureus 206 (MRSA-206), multi-resistant Staphylococcus aureus 575 (MRSA-575), multi-resistant Staphylococcus aureus 596 (MRSA-596). The experimental strain was identified by Huashan Hospital Affiliated to Fudan University (Institute of Antibiotic of Fudan University).
(§3) Drug sensitive paper: The drug sensitive paper was a special drug sensitive paper with a diameter of 6.35 mm and a water absorption of 0.02 mL. The control drug was vancomycin (30 μg/tablet); the test drugs were pleuromulin (30 μg/tablet), salicylic acid (30 μg/tablet) and pleuromulin salicylic acid ester (30 μg/tablet).
(§4) Reagents: LB agar medium, LA broth medium, 0.5% DMSO solution.
(§5) T The experimental strains were inoculated in non-selective medium and placed in air at 37° C. for 24 h. A single colony that grows well and inoculate it into broth medium was incubate at 35° C.±2° C. for 6 hours, and LA broth medium was used to calibrate the concentration of the bacterial solution to 0.5 Mie turbidimetric tube (1.5×10^8 CFU/mL). A bacterial suspension was obtained.
(§6) LB dry powder was weighed, sterilized at 103.4 Kpa, 121.3° C. high-pressure steam for 15 min, and then placed it in a 40° C.-50° C. water bath. A sterile empty plate (inner diameter 9 cm) was placed on the surface of the ultra-clean table water table, and […] to the plate. The thickness of each plate was 3 mm to 4 mm. After the plate was cooled at room temperature, it was stored in the refrigerator at 2° C.-8° C. A sterile cotton swab was used to dip the bacterial solution and ti evenly coat the surface of the LB plate 3 times. After inoculation of the bacterial suspension, the LB plate was dried at room temperature for 3 min to 5 min. Sterile forceps were used to closely attach the antibacterial drug paper to the dish. The dish was put upside down and placed in a 37° C. incubator for 24 h. The results were observed by measuring the diameter. Taking 0.5% DMSO solution as a negative control, the antibacterial activity is expressed by the diameter of the inhibition zone. The inhibition zone≥17 mm, sensitive; the inhibition zone of 15 mm-16 mm, intermediary; the inhibition zone≤14 mm, drug resistance.

[2] = tested on: multi-resistant Staphylococcus aureus 596 (MRSA-596); experiment: Paper diffusion method drug sensitivity test, MRSA-596; assay type: cell-based; details: for Zone of inhibition: MRSA-596, 30 μg/tablet paper disc 6.35 mm, LB plate, 37° C., 24 h, ≥17 mm sensitive, 15-16 mm intermediary, ≤14 mm drug resistance
Experimental: as §1, §2, §3, §4, §5, §6

drug-resistant bacteria = experiment: Paper diffusion method drug sensitivity test, overall statement on drug-resistant bacteria; assay type: cell-based, Staphylococcus aureus; details: drug-resistant bacteria in general (strains of Table 1); 30 μg/tablet
Experimental: as §1, §2, §3, §4, §5
as §6, with “Taking 0.5% DMSO solution as a negative control, the antibacterial activity is expressed by the diameter of the inhibition zone. The inhibition zone≥17 mm, sensitive; the inhibition zone of 15 mm-16 mm, intermediary; the inhibition zone≤14 mm, drug resistance.” left out

Q: `C=C[C@]1(C)C[C@@H](OC(=O)CO)[C@]2(C)[C@H](C)CC[C@]3(CCC(=O)[C@H]32)[C@@H](C)[C@@H]1O` [Pleuromulin] was tested. Which Zone of inhibition (MRSA-171) did it give?
A: 0 mm

Q: And the Zone of inhibition [1]?
A: 0 mm

Q: What about the Zone of inhibition [2] of the same compound?
A: 0 mm

Q: What about the “inhibitory effect on drug-resistant bacteria (in words)” value (drug-resistant bacteria) of the same compound?
A: no inhibitory effect

Q: What does the source list for `CN[C@H](CC(C)C)C(=O)N[C@H]1C(=O)N[C@@H](CC(N)=O)C(=O)N[C@H]2C(=O)N[C@H]3C(=O)N[C@H](C(=O)N[C@H](C(=O)O)c4cc(O)cc(O)c4-c4cc3ccc4O)[C@H](O)c3ccc(c(Cl)c3)Oc3cc2cc(c3O[C@@H]2O[C@H](CO)[C@@H](O)[C@H](O)[C@H]2O[C@H]2C[C@](C)(N)[C@H](O)[C@H](C)O2)Oc2ccc(cc2Cl)[C@H]1O` [Vancomycin, vancomycin]?
A: Zone of inhibition (MRSA-171): 15 mm; Zone of inhibition [1]: 17 mm; Zone of inhibition [2]: 23 mm

Q: With `C=C[C@]1(C)C[C@@H](OC(=O)COC(=O)c2ccccc2O)[C@]2(C)[C@H](C)CC[C@]3(CCC(=O)[C@H]32)[C@@H](C)[C@@H]1O` as the compound, how does the Zone of inhibition (MRSA-171) read?
A: 16 mm

Q: And the “inhibitory effect (in words)” value (MRSA-171; multi-drug resistant Staphylococcus aureus 171, 30 μg/tablet)?
A: strong inhibitory effects

Q: What about the Zone of inhibition [1] of the same compound?
A: 10 mm

Q: What about the “inhibitory effect (in words)” value ([1]; multi-drug resistant Staphylococcus aureus 575, 30 μg/tablet) of the same compound?
A: strong inhibitory effects

Q: What about the Zone of inhibition [2] of the same compound?
A: 26 mm

Q: And the “inhibitory effect (in words)” value ([2]; multi-drug resistant Staphylococcus aureus 596, 30 μg/tablet)?
A: strong inhibitory effects

Q: What about the “inhibitory effect on drug-resistant bacteria (in words)” value (drug-resistant bacteria) of the same compound?
A: excellent antibacterial activity and anti-drug-resistant bacteria activity

Q: `O=C(O)c1ccccc1O` [Salicylic acid] was tested. Which Zone of inhibition (MRSA-171) did it give?
A: 0 mm

Q: And the Zone of inhibition [1]?
A: 0 mm

Q: What about the Zone of inhibition [2] of the same compound?
A: 0 mm

Q: What about the “inhibitory effect on drug-resistant bacteria (in words)” value (drug-resistant bacteria) of the same compound?
A: no inhibitory effect
